Experimental data published in patent EP0402852A1, “Irreversible bombesin antagonists” (priority 1989, dated 1990).
Read-outs that look alike come from different tables or passages of the source. Starred links: 1 amine or outer side, 2 acyl side, 3 side chain; linkers in the order of their positions; H or OH if unused. Non-standard residues stand in square brackets, D forms with d. Residues, ends and D or L forms follow the SMILES beside them. *: point of attachment. X2 = CC(C)C[C@@H](CN[C@@H](CC(C)C)C(N)=O)N*; Carbamoyl(2-ClEt,NO) = O=NN(CCCl)C(=O)*; X1 = O=C(c1ccc(N(CCCl)CCCl)cc1)*; pGlu = O=C1CC[C@@H](C(=O)O)N1; Suc = O=C(CCC(=O)[*:2])[*:1]; Nle = CCCC[C@H](N)C(=O)O; CH2Cl = ClC*

What was measured:
bombesin receptors = target: T1, bombesin receptors (Mus musculus, UniProt P21729); test: Binding affinity for the bombesin receptors on mouse Swiss 3T3 fibroblasts
T1 construct: bombesin receptors was determined on mouse Swiss 3T3 fibroblasts; endogenous in cells; host or cells: mouse Swiss 3T3 fibroblasts
Procedure: The binding affinity of the compounds of the present invention for the bombesin receptors was determined on mouse Swiss 3T3 fibroblasts (I. Zachary and E. Rozengurt (1985) Proc. Natl. Acad. Sci. USA, 82, 7616-7620) (Table 1).

[1] = system: mouse Swiss 3T3 fibroblasts; test: Mitogenesis: [H³]thymidine incorporation in quiescent, confluent Swiss 3T3 cells; assay type: cell-based; settings: for FOLD INCREASE OVER BASAL VALUE: [H³]thymidine incorporation, compound alone
Procedure: The effect on mitogenesis was determined in quiescent and confluent Swiss 3T3 cells maintained in serum free medium (A.N.Corps et al (1985) Biochem J. 231, 781-785). In a first set of experiments, analogues are given alone or in combination with bombesin. In a second set of experiments, cells are pre-treated with the alkylating peptides, washed, left at 37°C for 24 hours and then challenged with bombesin. In both cases, DNA synthesis was evaluated as [H³]thymidine incorporation (Table 2).

[2] = system: p115 protein associated with the bombesin receptor; test: Phosphorylation of the p115 protein (activation of protein-tyrosin kinase); assay type: cell-based
Procedure: Mitogenic effect of bombesin and its analogues were also evaluated as activation of the protein-tyrosin kinase that phosphorylates a 115 KD protein (p115) associated with the bombesin receptor complex (D. Cirillo et al. (1986) Mol.Cell. Biol. 6, 4641- 4649) (Table 3). In addition, exposure to these peptides in the 0.1-50 µM range was associated with significant reduction in the growth of SCLC cell lines (such as NCI-H345, NCI-N592, NCI-H128), as well as of prostatic carcinoma cell lines (such as DU145 and PC3).

[3] = binding affinity on mouse Swiss 3T3 fibroblasts
[4] = binding affinity on mouse Swiss 3T3 fibroblasts, read-out: ID₅₀

T1 sequence (P21729 whole entry): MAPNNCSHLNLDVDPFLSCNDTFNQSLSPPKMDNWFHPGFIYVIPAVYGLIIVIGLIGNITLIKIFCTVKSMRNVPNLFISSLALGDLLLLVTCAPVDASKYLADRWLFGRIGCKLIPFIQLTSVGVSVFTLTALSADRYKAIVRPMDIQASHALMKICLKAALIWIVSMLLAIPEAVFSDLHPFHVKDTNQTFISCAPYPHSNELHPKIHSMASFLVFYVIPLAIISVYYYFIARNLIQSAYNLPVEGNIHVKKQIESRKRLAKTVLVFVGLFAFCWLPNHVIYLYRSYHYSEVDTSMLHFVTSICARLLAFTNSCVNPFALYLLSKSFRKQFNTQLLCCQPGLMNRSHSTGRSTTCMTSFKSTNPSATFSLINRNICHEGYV

Q: Which ID₅₀ (bombesin receptors; [3]) does the source give for “4-(ClCH₂CH₂)₂NC₆H₄CO-Thr-Gln-Trp-Ala-Val-Gly-His(Dnp)-Leu-Met-NH₂ (TQWAVGH; N-mustard benzoyl; His(Dnp)-Leu-Met-NH2; printed: Thr-Gln-Trp-Ala-Val-Gly-His) [III]” here?
A: 1815 ± 330 nM

Q: What about the “% INHIBITION IN THE PRESENCE OF 25nM BBS” value ([1]; A: analogues given in combination with BBS, 0.5µM) of the same compound?
A: 0%

Q: What about the “% INHIBITION IN THE PRESENCE OF 25nM BBS” value ([1]; A: analogues given in combination with BBS, 5 µM) of the same compound?
A: 0%

Q: What about the “% INHIBITION IN THE PRESENCE OF 25nM BBS” value ([1]; B: cells pre-treated with analogues, washed, left at 37°C for 24 h, then challenged with BBS, 0.5µM) of the same compound?
A: 51±11%

Q: And the “% INHIBITION IN THE PRESENCE OF 25nM BBS” value ([1]; B: cells pre-treated with analogues, washed, left at 37°C for 24 h, then challenged with BBS, 5 µM)?
A: 53+8%

Q: What about the “FOLD INCREASE OVER BASAL VALUE” ([1]; 0.5µM) of the same compound?
A: 2.3

Q: What about the “FOLD INCREASE OVER BASAL VALUE” ([1]; 5 µM) of the same compound?
A: 3.4

Q: What about the “MINIMAL ACTIVE DOSE” value [2] of the same compound?
A: 500 nM

Q: Which IC50 (bombesin receptors) does the source give for `CSCC[C@H](NC(=O)[C@H](CC(C)C)NC(=O)CNC(=O)[C@@H](NC(=O)[C@H](C)NC(=O)[C@H](Cc1c[nH]c2ccccc12)NC(=O)[C@H](CCC(N)=O)NC(=O)[C@@H](NC(=O)c1ccc(N(CCCl)CCCl)cc1)[C@@H](C)O)C(C)C)C(N)=O` [I, 4-(ClCH₂CH₂)₂NC₆H₄CO-Thr-Gln-Trp-Ala-Val-Gly-Leu-Met-NH₂] (X1-TQWAVGLM-NH2) here?
A: 1360 ± 266 nM

Q: How did the IC50 (bombesin receptors) turn out when `CCCC[C@H](NC(=O)[C@H](CC(C)C)NC(=O)CNC(=O)[C@@H](NC(=O)[C@H](C)NC(=O)[C@H](Cc1c[nH]c2ccccc12)NC(=O)[C@H](CCC(N)=O)NC(=O)[C@@H](NC(=O)c1ccc(N(CCCl)CCCl)cc1)[C@@H](C)O)C(C)C)C(N)=O` [II, 4-(ClC₂CH₂)₂NC₆H₄CO-Thr-Gln-Trp-Ala-Val-Gly-Leu-Nle-NH₂] (X1-TQWAVGL[Nle]-NH2) was run?
A: 438 ± 111 nM

Q: Which IC50 (bombesin receptors) does the source give for `CSCC[C@H](NC(=O)[C@H](CC(C)C)NC(=O)[C@H](Cc1c[nH]cn1)NC(=O)CNC(=O)[C@@H](NC(=O)[C@H](C)NC(=O)[C@H](Cc1c[nH]c2ccccc12)NC(=O)[C@H](CCC(N)=O)NC(=O)[C@@H](NC(=O)c1ccc(N(CCCl)CCCl)cc1)[C@@H](C)O)C(C)C)C(N)=O` [IV, 4-(ClCH₂CH₂)₂NC₆H₄CO-Thr-Gln-Trp-Ala-Val-Gly-His-Leu-Met-NH₂] here?
A: 0.7 ± 0.2 nM

Q: With `CCCC[C@H](NC(=O)[C@H](CC(C)C)NC(=O)CNC(=O)[C@@H](NC(=O)[C@H](C)NC(=O)[C@H](Cc1c[nH]c2ccccc12)NC(=O)[C@H](CCC(N)=O)NC(=O)[C@@H](NC(=O)N(CCCl)N=O)[C@@H](C)O)C(C)C)C(N)=O` [V, ClCH₂CH₂N(NO)CO-Thr-Gln-Trp-Ala-Val-Gly-Leu-Nle-NH₂] ({Carbamoyl(2-ClEt,NO)}-TQWAVGL[Nle]-NH2) as the compound, how does the IC50 (bombesin receptors) read?
A: 1340 ± 199 nM

Q: With `CCCC[C@H](NC(=O)CCC(=O)N[C@H](C(=O)N[C@@H](CCC(N)=O)C(=O)N[C@@H](Cc1c[nH]c2ccccc12)C(=O)N[C@@H](C)C(=O)N[C@H](C(=O)NCC(=O)N[C@@H](CC(C)C)C(=O)N[C@@H](CCSC)C(N)=O)C(C)C)[C@@H](C)O)C(=O)CCl` [VI, CH₃(CH₂)₃CH(COCH₂Cl)NHCO(CH₂)₂CO-Thr-Gln-Trp-Ala-Val-Gly-Leu-Met-NH₂] ({CH2Cl-Nle-Suc}-TQWAVGLM-NH2) as the compound, how does the IC50 (bombesin receptors; [4]) read?
A: 648 ± 290 nM

Q: `CC(C)C[C@@H](CN[C@@H](CC(C)C)C(N)=O)NC(=O)[C@H](Cc1cnc[nH]1)NC(=O)CNC(=O)[C@@H](NC(=O)[C@H](C)NC(=O)[C@H](Cc1c[nH]c2ccccc12)NC(=O)[C@H](CCC(N)=O)NC(=O)[C@H](CC(N)=O)NC(=O)CNC(=O)[C@H](CC(C)C)NC(=O)[C@H](CCCN=C(N)N)NC(=O)[C@H](CCC(N)=O)NC(=O)[C@@H]1CCC(=O)N1)C(C)C` [[Leu¹³Ψ(CH₂-NH)Leu¹⁴]BBS, reference compound] ([pGlu]QRLGNQWAVGH-X2) was tested. Which IC50 (bombesin receptors) did it give?
A: 214 ± 30 nM

Q: “Glp-Gln-Arg-Leu-Gly-Asn-Gln-Trp-Ala-Val-Gly-His-Leu-Met-NH₂ [BBS, reference compound]” was tested. Which ID₅₀ (bombesin receptors; [3]) did it give?
A: 12.6 ± 3.8 nM

Q: What about the “FOLD INCREASE OVER BASAL VALUE” ([1]; 5nM) of the same compound?
A: 3.0±1

Q: And the “MINIMAL ACTIVE DOSE” value [2]?
A: 3 nM

Q: What does the source list for Spantide [reference compound]?
A: IC50 (bombesin receptors; [4]): 11100 nM; MINIMAL ACTIVE DOSE [2]: > 10000 nM
